Assay results from ChEMBL document CHEMBL2016499, “Monoenomycin: A Simplified Trienomycin A Analogue that Manifests Anticancer Activity” (ACS Med Chem Lett, 2011).

Assays:
MCF7 = assay: Cytotoxicity against human MCF7 cells at 72 hrs by MTS assay; format: functional, cell-based; details: MCF7, 72 h
HeLa = assay: Cytotoxicity against human HeLa cells at 72 hrs by MTS assay; format: functional, cell-based

| SMILES | IC50 (MCF7) [nM] | IC50 (HeLa) [nM] |
| --- | --- | --- |
| COc1cc2cc(c1)NC(=O)CCCCCCC=CC[C@H](OC(=O)[C@@H](CC(C)C)NC(=O)C1CCCCC1)CC/C(C)=C/CC2 (mixture of isomers) | > 100000 | > 100000 |
| COc1cc2cc(c1)NC(=O)CCCCCCC=CC[C@H](OC(=O)[C@@H](C)NC(=O)C1CCCCC1)CC/C(C)=C/CC2 (mixture of isomers) | 530 | 470 |
| COc1cc2cc(c1)NC(=O)CCCCCCC=CC[C@H](OC(=O)[C@@H](Cc1ccccc1)NC(=O)C1CCCCC1)CC/C(C)=C/CC2 (mixture of isomers) | 5100 | 4600 |
| COc1cc2cc(c1)NC(=O)CCCCCCC=CC[C@H](OC(=O)[C@H](C)NC(=O)C1CCCCC1)CC/C(C)=C/CC2 (mixture of isomers) | 1900 | 1700 |
| COc1cc2cc(c1)NC(=O)CCCCCCC=CC[C@H](OC(=O)[C@@H](C)NC(C)=O)CC/C(C)=C/CC2 (mixture of isomers) | 1700 | 2500 |
| COc1cc2cc(c1)NC(=O)CCCCCCC=CC[C@H](OC(=O)[C@@H](C)NC(=O)C1CCCCC1)CC/C(C)=C\CC2 (mixture of isomers) | > 100000 | > 100000 |
| COc1cc2cc(c1)NC(=O)CCCCCCC=CC[C@H](OC(=O)CNC(=O)C1CCCCC1)CC/C(C)=C/CC2 (mixture of isomers) | 12000 | 13000 |
| COC1=C2C[C@@H](C)C[C@H](OC)[C@H](O)[C@@H](C)/C=C(\C)[C@H](OC(N)=O)[C@@H](OC)/C=C\C=C(/C)C(=O)NC(=CC1=O)C2=O [GELDANAMYCIN] | 53 | > 5000 |
| COc1cc2cc(c1)NC(=O)CCCCCCC=CC[C@H](OC(=O)[C@@H](C)NC(=O)C1CCCC1)CC/C(C)=C/CC2 (mixture of isomers) | 720 | 1600 |
| CO[C@H]1/C=C/C=C/C=C/C[C@H](OC(=O)[C@@H](C)NC(=O)C2CCCCC2)[C@H](C)[C@@H](O)/C(C)=C\CCc2cc(O)cc(c2)NC(=O)C1 [TRIENOMYCIN A] | – | 128 |
| COc1cc2cc(c1)NC(=O)CCCCCCC=CC[C@H](OC(=O)[C@H](NC(=O)C1CCCCC1)C(C)C)CC/C(C)=C/CC2 (mixture of isomers) | 1000 | 9100 |
